Results reported in ChEMBL document CHEMBL1201862, “PubChem BioAssay data set” (2004).
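Values below derive from 48-hour exposures of cells grown in 96-well plates, with endpoints linearly interpolated between the two concentrations bracketing the appropriate inhibition level. GI50 = concentration required for 50% inhibition of growth.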 Activity calls are given as the source filed them. No stated cut-off is given here; in the data, active = GI50 up to about 1.1 µM and inactive = higher.

How the values were obtained:
Experiment in all cases: NCI tumour cell line growth inhibition, 48 h
BT-549 = tested on: BT-549
HOP-92 = tested on: HOP-92
Hs-578T = tested on: Hs-578T
M14 = tested on: M14
MDA-MB-231 = tested on: MDA-MB-231
Malme-3M = tested on: Malme-3M
NCI-H460 = tested on: NCI-H460
NCI-H522 = tested on: NCI-H522
OVCAR-3 = tested on: OVCAR-3
OVCAR-8 = tested on: OVCAR-8
RXF 393 = tested on: RXF 393
SK-MEL-5 = tested on: SK-MEL-5
SK-OV-3 = tested on: SK-OV-3
SN12C = tested on: SN12C
SR = tested on: SR
T47D = tested on: T47D
TK-10 = tested on: TK-10
U-251 = tested on: U-251
UO-31 = tested on: UO-31

Measured: GI50

CCOC(=O)c1nc2cc(N3CCOCC3)c(F)cc2[nH]c1=O
inactive: BT-549 > 100 µM | HOP-92 37.9 µM | Hs-578T 33.4 µM | M14 > 100 µM | MDA-MB-231 > 100 µM | Malme-3M > 100 µM | NCI-H460 > 100 µM | NCI-H522 67.9 µM | OVCAR-3 > 100 µM | OVCAR-8 86.9 µM | RXF 393 > 100 µM | SK-MEL-5 > 100 µM | SK-OV-3 > 100 µM | SN12C > 100 µM | SR 54.2 µM | T47D > 100 µM | TK-10 > 100 µM | U-251 > 100 µM | UO-31 35.2 µM

Cc1ccc(/N=N/c2c(O)c(C(=O)O)cc3ccccc23)c(S(=O)(=O)O)c1
inactive: BT-549 > 100 µM | HOP-92 97.1 µM | Hs-578T > 100 µM | M14 > 100 µM | MDA-MB-231 > 100 µM | Malme-3M > 100 µM | NCI-H522 > 100 µM | OVCAR-3 > 100 µM | OVCAR-8 > 100 µM | RXF 393 > 100 µM | SK-MEL-5 > 100 µM | SK-OV-3 > 100 µM | SN12C > 100 µM | SR > 100 µM | T47D > 100 µM | TK-10 > 100 µM | U-251 > 100 µM | UO-31 > 100 µM

COc1cc(OC)cc(-c2cc(=O)c3c(OC)c(OC)c(OC)c(OC)c3o2)c1
inactive: BT-549 41.1 µM | HOP-92 16.7 µM | Hs-578T 29.3 µM | M14 37.2 µM | MDA-MB-231 59.7 µM | Malme-3M 31.6 µM | NCI-H460 29 µM | NCI-H522 21.2 µM | OVCAR-3 18.8 µM | OVCAR-8 33.6 µM | RXF 393 18.2 µM | SK-MEL-5 19.8 µM | SK-OV-3 5.93 µM | SN12C 26.4 µM | SR > 100 µM | T47D 20.9 µM | TK-10 70.6 µM | U-251 31.9 µM | UO-31 10.8 µM

Cc1cc2c(c(C(=O)NCCC(=O)O)c1)Oc1c(cc(C)cc1C(=O)NCCC(=O)O)S2
inactive: BT-549 > 100 µM | HOP-92 > 100 µM | Hs-578T > 100 µM | M14 > 100 µM | MDA-MB-231 > 100 µM | Malme-3M > 100 µM | NCI-H522 > 100 µM | OVCAR-3 > 100 µM | OVCAR-8 > 100 µM | RXF 393 > 100 µM | SK-OV-3 > 100 µM | SN12C > 100 µM | SR > 100 µM | T47D > 100 µM | TK-10 > 100 µM | U-251 > 100 µM

c1ccc2c(c1)-c1ccccc1C2N1CC2CCC(CC2)C1
inactive: BT-549 16.8 µM | HOP-92 17.5 µM | Hs-578T 3.37 µM | M14 26.7 µM | MDA-MB-231 18.8 µM | Malme-3M 10.1 µM | NCI-H460 19.8 µM | NCI-H522 10.5 µM | OVCAR-3 20.4 µM | OVCAR-8 30 µM | RXF 393 17.8 µM | SK-MEL-5 17.1 µM | SK-OV-3 44.1 µM | SN12C 23.9 µM | SR 20.6 µM | T47D 20.7 µM | TK-10 37.4 µM | U-251 17.1 µM | UO-31 28.8 µM

CCC1CC(=O)N(SCC(N)C(=O)O)C1=O (stereo unspecified)
inactive: BT-549 > 100 µM | HOP-92 > 100 µM | Hs-578T > 100 µM | M14 > 100 µM | MDA-MB-231 > 100 µM | Malme-3M > 100 µM | NCI-H460 > 100 µM | NCI-H522 > 100 µM | OVCAR-3 > 100 µM | OVCAR-8 > 100 µM | RXF 393 > 100 µM | SK-MEL-5 > 100 µM | SK-OV-3 > 100 µM | SN12C > 100 µM | SR > 100 µM | T47D > 100 µM | TK-10 > 100 µM | U-251 > 100 µM | UO-31 > 100 µM

COc1cc2c(cc1OC)C(Cc1ccccc1CCCl)=NCC2
inactive: BT-549 40.3 µM | HOP-92 30.3 µM | Hs-578T 73.5 µM | M14 38.1 µM | MDA-MB-231 > 100 µM | NCI-H460 21.9 µM | NCI-H522 15.9 µM | OVCAR-3 > 100 µM | OVCAR-8 47.2 µM | RXF 393 43.7 µM | SK-MEL-5 22.5 µM | SK-OV-3 > 100 µM | SN12C > 100 µM | SR 84.1 µM | T47D 31.8 µM | TK-10 > 100 µM | U-251 53.2 µM | UO-31 31.3 µM

N#C/C(=C\c1ccccc1)C(=O)Nc1nnc(-c2ccccc2)o1
inactive: BT-549 28.2 µM | HOP-92 47.9 µM | Hs-578T > 100 µM | M14 37.8 µM | MDA-MB-231 31.5 µM | Malme-3M 31 µM | NCI-H522 38 µM | OVCAR-3 14.8 µM | OVCAR-8 36.1 µM | RXF 393 34 µM | SK-MEL-5 19 µM | SK-OV-3 31.8 µM | SN12C 36.7 µM | SR 25.6 µM | T47D 31.3 µM | TK-10 > 100 µM | U-251 37.4 µM | UO-31 29.4 µM
